Measured values: patent publication US12649750B2, “Macrocyclic compounds, compositions, and methods of using thereof” (Sionna Therapeutics Inc., priority 2022, dated 2026)

Legend:
NBD1 = target: T1, NBD1 (Homo sapiens, UniProt P13569); test: Aggregation analysis using differential static light scattering (DSLS), thermal stability of NBD1 (ΔTagg); assay type: binding; settings: ΔTagg versus DMSO control, NBD1 0.2 mg/ml
T1 construct: Purified recombinant NBD1 was produced using previously described methods; made in house
T1 sequence (P13569 423-646 limits assumed): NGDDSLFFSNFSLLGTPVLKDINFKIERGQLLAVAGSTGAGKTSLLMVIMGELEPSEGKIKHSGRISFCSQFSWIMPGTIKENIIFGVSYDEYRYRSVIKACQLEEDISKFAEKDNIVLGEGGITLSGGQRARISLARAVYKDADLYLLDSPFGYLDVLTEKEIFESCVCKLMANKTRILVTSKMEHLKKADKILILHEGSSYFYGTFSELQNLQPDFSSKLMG
Method in brief: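 Purified recombinant NBD1 at 0.2 mg/ml in Tris buffer pH7.6 with 2 mM ATP, 5 mM MgCl2, 2 mM DTT and 1% glycerol was mixed with DMSO-dissolved compounds under mineral oil. Plates were heated at 1° C. per minute to 70° C., light scattering imaged every 0.5° C.; Tagg from curve inflection, minus DMSO-control mean.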

CFTR = target: T2, CFTR (Homo sapiens, UniProt P13569, DEL508-508); test: TECC24 AUC fold over DMSO @10 μM, CFTR-mediated transepithelial chloride transport in CF-HBE cells; assay type: cell-based; settings: test agent AUC divided by DMSO vehicle AUC, primary CF-HBE cells, ΔF508 homozygous donor, 48 hours incubation
T2 construct: Primary human bronchial epithelial cells from a ΔF508 homozygous CF donor; host or cells: primary human bronchial epithelial cells (CF-HBE), ΔF508 homozygous donor
T2 sequence (P13569 with tags, fused parts or gaps DEL508-508): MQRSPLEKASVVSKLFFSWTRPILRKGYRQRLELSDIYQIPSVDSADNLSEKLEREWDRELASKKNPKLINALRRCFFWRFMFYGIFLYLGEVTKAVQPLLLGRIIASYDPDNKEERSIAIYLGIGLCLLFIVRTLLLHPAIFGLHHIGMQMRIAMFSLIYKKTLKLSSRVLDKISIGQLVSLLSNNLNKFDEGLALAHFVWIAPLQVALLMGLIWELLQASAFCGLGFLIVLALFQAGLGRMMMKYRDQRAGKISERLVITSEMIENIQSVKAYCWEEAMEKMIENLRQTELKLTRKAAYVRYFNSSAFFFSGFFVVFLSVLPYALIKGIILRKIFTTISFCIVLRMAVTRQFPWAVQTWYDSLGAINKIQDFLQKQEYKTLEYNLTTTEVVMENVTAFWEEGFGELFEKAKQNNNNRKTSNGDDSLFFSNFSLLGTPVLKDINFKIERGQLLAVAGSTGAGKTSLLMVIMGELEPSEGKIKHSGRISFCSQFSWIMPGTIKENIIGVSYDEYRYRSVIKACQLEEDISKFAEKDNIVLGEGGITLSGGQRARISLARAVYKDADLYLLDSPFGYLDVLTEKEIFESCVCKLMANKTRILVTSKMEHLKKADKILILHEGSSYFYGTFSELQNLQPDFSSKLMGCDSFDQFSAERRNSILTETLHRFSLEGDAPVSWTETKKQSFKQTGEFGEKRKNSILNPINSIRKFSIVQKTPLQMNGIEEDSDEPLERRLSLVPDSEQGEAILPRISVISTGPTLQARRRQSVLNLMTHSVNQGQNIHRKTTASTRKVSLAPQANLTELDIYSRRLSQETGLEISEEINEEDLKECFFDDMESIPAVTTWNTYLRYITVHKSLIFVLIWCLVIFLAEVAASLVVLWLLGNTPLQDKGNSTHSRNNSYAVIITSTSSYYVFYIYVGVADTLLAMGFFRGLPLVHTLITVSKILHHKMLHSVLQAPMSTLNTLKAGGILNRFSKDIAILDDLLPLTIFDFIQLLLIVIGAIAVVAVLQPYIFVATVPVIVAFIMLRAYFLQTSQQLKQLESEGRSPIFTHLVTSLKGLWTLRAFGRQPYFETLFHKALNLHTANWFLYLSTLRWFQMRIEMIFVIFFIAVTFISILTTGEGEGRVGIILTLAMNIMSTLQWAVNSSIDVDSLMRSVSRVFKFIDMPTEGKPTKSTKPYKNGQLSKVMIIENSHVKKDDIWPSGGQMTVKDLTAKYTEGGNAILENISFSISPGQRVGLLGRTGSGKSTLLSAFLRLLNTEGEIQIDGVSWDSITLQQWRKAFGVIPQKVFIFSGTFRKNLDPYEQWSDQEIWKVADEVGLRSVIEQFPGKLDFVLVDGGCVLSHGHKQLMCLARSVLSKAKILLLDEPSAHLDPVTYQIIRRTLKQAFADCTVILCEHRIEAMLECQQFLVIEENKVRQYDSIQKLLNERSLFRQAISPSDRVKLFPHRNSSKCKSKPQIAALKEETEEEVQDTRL
Method in brief: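 ΔF508-homozygous primary bronchial epithelial cells incubated 48 h at 36.5° C with compound (10 μM) in IL-13-containing medium, then TECC24 current-clamp recording in pH 7.4 Hepes saline with benzamil 10 μM, forskolin 10 μM, then CFTR inhibitor-172 20 μM. Equivalent Cl− current AUC between forskolin and inhibitor, expressed as fold over DMSO.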

Row | SMILES | DSLS 3D (100 μM ΔT) (NBD1) | TECC (AUC, 10 μM) (CFTR)
1 | CC(Cc1cccc(C2(CN)CCCC(C)(C)CS(=O)(=O)CCc3c(c(F)cc4[nH]ccc34)Oc3ccc(F)c(c3)-c3nc2nn3C)c1)C(=O)O (single isomer, unassigned) [Compound 136B, 3-[3-[6-(aminomethyl)-22,28-difluoro-3,10,10-trimethyl-12,12-dioxo-24-oxa-12λ6-thia-3,4,19,30-tetrazapentacyclo-[23.3.1.12,5.015,23.016,20]triaconta-1(29),2(30),4,15,17,20,22,25,27-nonaen-6-yl]phenyl]-2-methyl-propanoic Acid] | C (a value greater than 10 °C and less than or equal to 25 °C is marked “C”) | C (a value between 20 and 80 is marked “C”)
2 | CC(Cc1cccc(C2(CNCC(F)F)CCCC(C)(C)CS(=O)(=O)CCc3c(c(F)cc4[nH]ccc34)Oc3ccc(F)c(c3)-c3nc2nn3C)c1)C(=O)O (single isomer, unassigned) [Compound 137B, 3-[3-[6-[(2,2-difluoroethylamino)methyl]-22,28-difluoro-3,10,10-trimethyl-12,12-dioxo-24-oxa-12λ6-thia-3,4,19,30-tetrazapentacyclo[23.3.1.12,5.015,23.016,20]triaconta-1(29),2(30),4,15,17,20,22,25,27-nonaen-6-yl]phenyl]-2-methyl-propanoic Acid] | B (a value above 5 °C and less than or equal to 10 °C is marked “B”) | A (a TECC value less than 12 is marked “A”)
3 | CC(C)OC(=O)[C@@H](C)Cc1cccc(C2(C)CCCC(C)(C)CS(=O)(=O)CCc3c(c(F)cc4[nH]ccc34)Oc3ccc(F)c(c3)-c3nc2nn3C)c1 (single isomer, unassigned) [Compound 139] | B (a value above 5 °C and less than or equal to 10 °C is marked “B”) | C (a value between 20 and 80 is marked “C”)
4 | C[C@@H](Cc1cccc(C2(C)CCCC(C)(C)CS(=O)(=O)CCc3c(c(F)cc4[nH]ccc34)Oc3ccc(F)c(c3)-c3nc2nn3C)c1)C(=O)OCCO (single isomer, unassigned) [Compound 140] | C (a value greater than 10 °C and less than or equal to 25 °C is marked “C”) | B (a value between 12-20 is marked “B”)
5 | C[C@@H](Cc1cccc(C2(C)CCCC(C)(C)CS(=O)(=O)CCc3c(c(F)cc4[nH]ccc34)Oc3ccc(F)c(c3)-c3nc2nn3C)c1)C(=O)OCC(O)CO (single isomer, unassigned) [Compound 141] | C (a value greater than 10 °C and less than or equal to 25 °C is marked “C”) | B (a value between 12-20 is marked “B”)
6 | C[C@@H](Cc1cccc(C2(C)CCCC(C)(C)CS(=O)(=O)CCc3c(c(F)cc4[nH]ccc34)Oc3ccc(F)c(c3)-c3nc2nn3C)c1)C(=O)OCCN1CCOCC1 (single isomer, unassigned) [Compound 142] | B (a value above 5 °C and less than or equal to 10 °C is marked “B”) | B (a value between 12-20 is marked “B”)
7 | C[C@@H](Cc1cccc(C2(C)CCCC(C)(C)CS(=O)(=O)CCc3c(c(F)cc4[nH]ccc34)Oc3ccc(F)c(c3)-c3nc2nn3C)c1)C(=O)OCCN1CCN(C)CC1 (single isomer, unassigned) [Compound 143] | B (a value above 5 °C and less than or equal to 10 °C is marked “B”) | B (a value between 12-20 is marked “B”)
8 | C[C@@H](Cc1cccc(C2(C)CCCC(C)(C)CS(=O)(=O)CCc3c(c(F)cc4[nH]ccc34)Oc3ccc(F)c(c3)-c3nc2nn3C)c1)C(=O)OCc1coc(=O)o1 (single isomer, unassigned) [Compound 144] | C (a value greater than 10 °C and less than or equal to 25 °C is marked “C”) | B (a value between 12-20 is marked “B”)
9 | C[C@@H](Cc1cccc(C2(C)CCCC(C)(C)CS(=O)(=O)CCc3c(c(F)cc4[nH]ccc34)Oc3ccc(F)c(c3)-c3nc2nn3C)c1)C(=O)OCOC(=O)C(C)(C)C (single isomer, unassigned) [Compound 145] | A (an ΔTagg value less than or equal to 5 °C is marked “A”) | C (a value between 20 and 80 is marked “C”)
10 | C[C@@H](Cc1cccc(C2(C)CCCC(C)(C)CS(=O)(=O)CCc3c(c(F)cc4[nH]ccc34)Oc3ccc(F)c(c3)-c3nc2nn3C)c1)C(=O)NS(C)(=O)=O (single isomer, unassigned) [Compound 146] | C (a value greater than 10 °C and less than or equal to 25 °C is marked “C”) | A (a TECC value less than 12 is marked “A”)
11 | CONC(=O)[C@@H](C)Cc1cccc(C2(C)CCCC(C)(C)CS(=O)(=O)CCc3c(c(F)cc4[nH]ccc34)Oc3ccc(F)c(c3)-c3nc2nn3C)c1 (single isomer, unassigned) [Compound 147] | C (a value greater than 10 °C and less than or equal to 25 °C is marked “C”) | A (a TECC value less than 12 is marked “A”)
12 | C[C@@H](Cc1cccc(C2(C)CCCC(C)(C)CS(=O)(=O)CCc3c(c(F)cc4[nH]ccc34)Oc3ccc(F)c(c3)-c3nc2nn3C)c1)C(=O)NOCC(O)CO (single isomer, unassigned) [Compound 148] | C (a value greater than 10 °C and less than or equal to 25 °C is marked “C”) | C (a value between 20 and 80 is marked “C”)
13 | CNC(=O)[C@@H](C)Cc1cccc(C2(C)CCCC(C)(C)CS(=O)(=O)CCc3c(c(F)cc4[nH]ccc34)Oc3ccc(F)c(c3)-c3nc2nn3C)c1 (single isomer, unassigned) [Compound 149] | C (a value greater than 10 °C and less than or equal to 25 °C is marked “C”) | A (a TECC value less than 12 is marked “A”)
14 | C[C@@H](Cc1cccc(C2(C)CCCC(C)(C)CS(=O)(=O)CCc3c(c(F)cc4[nH]ccc34)Oc3ccc(F)c(c3)-c3nc2nn3C)c1)C(=O)NS(=O)(=O)C1CC1 (single isomer, unassigned) [Compound 150] | C (a value greater than 10 °C and less than or equal to 25 °C is marked “C”) | A (a TECC value less than 12 is marked “A”)
15 | COCC(Cc1cccc(C2(C)CCCC(C)(C)CS(=O)(=O)CCc3c(c(F)cc4[nH]ccc34)Oc3ccc(F)c(c3)-c3nc2nn3C)c1)C(=O)O (single isomer, unassigned) [Compound 153A, 2-[[3-(22,28-difluoro-3,6,10,10-tetramethyl-12,12-dioxo-24-oxa-12λ6-thia-3,4,19,30-tetrazapentacyclo[23.3.1.12,5.015,23.016,20]triaconta-1(29),2(30),4,15,17,20,22,25,27-nonaen-6-yl)phenyl]methyl]-3-methoxy-propanoic Acid] | C (a value greater than 10 °C and less than or equal to 25 °C is marked “C”) | C (a value between 20 and 80 is marked “C”)
16 | COCC(Cc1cccc(C2(C)CCCC(C)(C)CS(=O)(=O)CCc3c(c(F)cc4[nH]ccc34)Oc3ccc(F)c(c3)-c3nc2nn3C)c1)C(=O)O (single isomer, unassigned) [Compound 153B, 2-[[3-(22,28-difluoro-3,6,10,10-tetramethyl-12,12-dioxo-24-oxa-12λ6-thia-3,4,19,30-tetrazapentacyclo[23.3.1.12,5.015,23.016,20]triaconta-1(29),2(30),4,15,17,20,22,25,27-nonaen-6-yl)phenyl]methyl]-3-methoxy-propanoic Acid] | A (an ΔTagg value less than or equal to 5 °C is marked “A”) | C (a value between 20 and 80 is marked “C”)
17 | COCC(Cc1cccc(C2(C)CCCC(C)(C)CS(=O)(=O)CCc3c(c(F)cc4[nH]ccc34)Oc3ccc(F)c(c3)-c3nc2nn3C)c1)C(=O)O (single isomer, unassigned) [Compound 153C, 2-[[3-(22,28-difluoro-3,6,10,10-tetramethyl-12,12-dioxo-24-oxa-12λ6-thia-3,4,19,30-tetrazapentacyclo[23.3.1.12,5.015,23.016,20]triaconta-1(29),2(30),4,15,17,20,22,25,27-nonaen-6-yl)phenyl]methyl]-3-methoxy-propanoic Acid] | A (an ΔTagg value less than or equal to 5 °C is marked “A”) | A (a TECC value less than 12 is marked “A”)
18 | C[C@H](Cc1cccc(C2(C)CCCC(C)(C)CS(=O)(=O)CCc3c(c(F)cc4[nH]ccc34)Oc3ccc(F)c(c3)-c3nc2c[nH]3)c1)C(=O)O (single isomer, unassigned) [Compound 157A] | A (an ΔTagg value less than or equal to 5 °C is marked “A”) | A (a TECC value less than 12 is marked “A”)
19 | C[C@H](Cc1cccc(C2(C)CCCC(C)(C)CS(=O)(=O)CCc3c(c(F)cc4[nH]ccc34)Oc3ccc(F)c(c3)-c3nc2c[nH]3)c1)C(=O)O (single isomer, unassigned) [Compound 157B] | C (a value greater than 10 °C and less than or equal to 25 °C is marked “C”) | A (a TECC value less than 12 is marked “A”)
20 | C[C@@H](Cc1cccc(C2(C)CCCC(C)(C)CS(=O)(=O)CCc3c(c(F)cc4[nH]ccc34)Oc3ccc(F)c(c3)-c3nc2nn3C)c1)C(N)=O (single isomer, unassigned) [Compound 158] | C (a value greater than 10 °C and less than or equal to 25 °C is marked “C”) | A (a TECC value less than 12 is marked “A”)
